Broadly, the melting point is the temperature, or range, at which the solid turns liquid.

These results are taken from patent US7163952B2, “Azole compound and medicinal use thereof” (Japan Tobacco Inc., priority 2001, dated 2007).

Where a name gives a salt, the structure may show the parent alone.

Regarding `CN(Cc1ccc(C(=O)OC2OC(=O)c3ccccc32)cc1)c1nc(-c2ccc(OCc3ccc(C4CCCCC4)cc3)cc2)cs1` (stereo not shown) [Example 248, 3-oxo-1,3-dihydroisobenzofuran-1-yl 4-((N-(4-(4-(4-cyclohexylbenzyloxy)phenyl)-2-thiazolyl)-N-methylamino)methyl)benzoate], the melting point lay in the range of 104 to 105 °C.

As for `O=C(O)c1ccc(N(CC2CCCCC2)c2nc(-c3nc4ccc(OCc5ccc(Cl)c(Cl)c5)cc4o3)cs2)cc1` [Example 187, 4-(N-cyclohexylmethyl-N-(4-(6-(3,4-dichlorobenzyloxy)-2-benzooxazolyl)-2-thiazolyl)amino)benzoic acid], the melting point is 182 to 189 °C.

For the compound `CC1CCN(c2ccc(C(=O)Nc3ccc(-c4csc(N(c5ccc(C(=O)O)cc5)C(C)C)n4)cc3)cc2)CC1.Cl`, the melting point is 230 °C (dec.).

On to `CN(Cc1ccc(C(=O)O)cc1)c1nc(-c2ccc(CN3CCN(Cc4ccccc4)CC3)cc2)cs1` [Example 240, 4-((N-(4-(4-(4-benzyl-1-piperazinylmethyl)phenyl)-2-thiazolyl)-N-methylamino)methyl)benzoic acid], for which the melting point lay in the range of 130 to 135 °C.

In the case of `CN(Cc1ccc(C2CCCCC2)cc1)c1ccc(-c2csc(N(C)c3ccc(C(=O)O)cc3)n2)cc1` [Example 132, 4-(N-(4-(4-(N-(4-cyclohexylbenzyl)-N-methylamino)phenyl)-2-thiazolyl)-N-methylamino)benzoic acid], the melting point lay in the range of 185 to 189 °C.

For `CN(Cc1ccc(C2CCCCC2)cc1)c1ccc(-c2csc(NCc3ccc(C(=O)O)cc3)n2)cc1` [Example 247, 4-((4-(4-(N-(4-cyclohexylbenzyl)-N-methylamino)phenyl)-2-thiazolylamino)methyl)benzoic acid], the melting point is 209 °C (dec.).

As for `CC(C)N(Cc1cccc(-c2nnn[nH]2)c1)c1nc(-c2ccc(OCc3ccc(C4CCCCC4)cc3)cc2)cs1` [Example 80, N-(4-(4-(4-cyclohexylbenzyloxy)phenyl)-2-thiazolyl)-N-isopropyl-(3-(1H-tetrazol-5-yl)benzyl)amine], the melting point lay within 221 to 222 °C.

With `CN(Cc1ccc(C(=O)O)cc1)c1nc(-c2ccc(OCc3ccc(C4CCCCC4)cc3)cc2)cs1` (as salt: hydrochloride) [Example 252, 4-((N-(4-(4-(4-cyclohexylbenzyloxy)phenyl)-2-thiazolyl)-N-methylamino)methyl)benzoic acid hydrochloride], the melting point is 174 °C (dec.).

For `CN(C)CCN(c1ccc(C(=O)O)cc1)c1nc(-c2ccc(OCc3ccc(Cl)c(Cl)c3)cc2)cs1` [Example 97, 4-(N-(4-(4-(3,4-dichlorobenzyloxy)phenyl)-2-thiazolyl)-N-(2-dimethylaminoethyl)amino)benzoic acid], the melting point is 230 °C (dec.).

For the compound `O=C(O)c1ccc(N(CCN2CCCCC2)c2nc(-c3ccc(OCc4ccc(Cl)c(Cl)c4)cc3)cs2)cc1` [Example 98, 4-(N-(4-(4-(3,4-dichlorobenzyloxy)phenyl)-2-thiazolyl)-N-(2-piperidinoethyl)amino)benzoic acid], the melting point is 230 °C (dec.).

Turning to `CC(C)N(Cc1ccc(C(=O)O)cc1)c1nc(-c2ccc(OCc3ccc(C4CCCCC4)cc3)cc2)cs1` [Example 65, 4-((N-(4-(4-(4-cyclohexylbenzyloxy)phenyl)-2-thiazolyl)-N-isopropylamino)methyl)benzoic acid], the melting point lay within 233 to 234 °C.

`CC(C)N(Cc1ccc(C(=O)O)cc1)c1nc(-c2ccc(NC(=O)c3ccc(-c4ccccc4)cc3)cc2)cs1` [Example 64, 4-((N-(4-(4-(4-biphenylcarbonylamino)phenyl)-2-thiazolyl)-N-isopropylamino)methyl)benzoic acid]: the melting point was 250 °C (dec.).

`O=C(O)c1ccc(C2(c3nc(-c4ccc(OCc5ccc(C6CCCCC6)cc5)cc4)cs3)CCCCC2)cc1` [Example 100, 4-(1-(4-(4-(4-cyclohexylbenzyloxy)phenyl)-2-thiazolyl)cyclohexyl)benzoic acid] had a melting point of 222 to 224 °C.

For `CC(C)N(c1cccc(C(=O)O)c1)c1nc(-c2ccc(NC(=O)c3ccc(C4CCCCC4)cc3)cc2)cs1` [Example 28, 3-(N-(4-(4-(4-cyclohexylbenzoylamino)phenyl)-2-thiazolyl)-N-isopropylamino)benzoic acid], the melting point was 230 °C (dec.).

The compound `CN(Cc1ccc(Cl)c(Cl)c1)c1ccc(-c2csc(N(Cc3ccc(C(=O)O)cc3)CC3CCCCC3)n2)cc1` [Example 118, 4-((N-cyclohexylmethyl-N-(4-(4-(N-(3,4-dichlorobenzyl)-N-methylamino)phenyl)-2-thiazolyl)amino)methyl)benzoic acid] registered a melting point of 125 to 127 °C.

For the compound `O=C(O)c1ccc(CN(CCC2CCCCC2)c2nc(-c3cc(Cl)ccc3OCc3ccc(C(F)(F)F)cc3)cs2)cc1` [Example 165, 4-((N-(4-(5-chloro-2-(4-trifluoromethylbenzyloxy)phenyl)-2-thiazolyl)-N-(2-cyclohexylethyl)amino)methyl)benzoic acid], the melting point lay within 171 to 172 °C.

In turn, `CN(Cc1ccc(C(=O)O)cc1)c1nc(-c2ccc(OCc3ccc(C4CCCCC4)cc3)cc2)cs1.O=S(=O)(O)O` came in with a melting point of 182 to 183 °C.

Turning to `CC(C)N(Cc1ccc(C(=O)O)cc1)c1nc(-c2ccc(OCc3cccc(N4CCCCC4)c3)cc2)cs1` (as salt: hydrochloride) [Example 127, 4-((N-isopropyl-N-(4-(4-(3-piperidinobenzyloxy)phenyl)-2-thiazolyl)amino)methyl)benzoic acid dihydrochloride], the melting point fell in the range of 135 to 140 °C.

The compound `CC(C)(C)c1ccc(COc2ccc(-c3csc(Cc4ccc(C(=O)O)cc4)n3)cc2)cc1` [Example 47, 4-(4-(4-(4-tert-butylbenzyloxy)phenyl)-2-thiazolylmethyl)benzoic acid] registered a melting point of 223 to 228 °C.

As to `O=C(O)c1ccc(Nc2nc(-c3ccc(NC(=O)c4ccccc4)cc3)cs2)cc1` [Example 4, 4-(4-(4-benzoylaminophenyl)-2-thiazolylamino)benzoic acid], the melting point was 250 °C (dec.).

Compound `CC(C)c1ccc(COc2ccc(Cl)cc2-c2csc(N(CCC3CCCCC3)c3ccc(C(=O)O)cc3)n2)cc1` [Example 176, 4-(N-(4-(5-chloro-2-(4-isopropylbenzyloxy)phenyl)-2-thiazolyl)-N-(2-cyclohexylethyl)amino)benzoic acid] had a melting point of 190 to 192 °C.

As for `CN(c1ccc(C(=O)[O-])cc1)c1nc(-c2ccc(NCc3ccc(C4CCCCC4)cc3)cc2)cs1.[Na+]` [Example 263, sodium 4-(N-(4-(4-(4-cyclohexylbenzylamino)phenyl)-2-thiazolyl)-N-methylamino)benzoate], the melting point came to 260 °C.

Consider `CN(Cc1ccc(C2CCCC2)cc1)c1ccc(-c2csc(N(C)Cc3ccc(C(=O)O)cc3)n2)cc1` [Example 212, 4-((N-(4-(4-(N-(4-cyclopentylbenzyl)-N-methylamino)phenyl)-2-thiazolyl)-N-methylamino)methyl)benzoic acid], for which the melting point lay within 181 to 183 °C.

On to `O=C(O)CN(c1ccc(C(=O)O)cc1)c1nc(-c2ccc(NC(=O)c3ccccc3)cc2)cs1` [Example 16, 4-(N-(4-(4-benzoylaminophenyl)-2-thiazolyl)-N-carboxymethylamino)benzoic acid], for which the melting point is 210 °C (dec.).

In turn, `COCCN(c1ccc(C(=O)O)cc1)c1nc(-c2ccc(OCc3ccc(Cl)c(Cl)c3)cc2)cs1` [Example 99, 4-(N-(4-(4-(3,4-dichlorobenzyloxy)phenyl)-2-thiazolyl)-N-(2-methoxyethyl)amino)benzoic acid] came in with a melting point of 175 to 178 °C.

`CN(C)c1ccc(CCN(C)c2ccc(-c3csc(N(C)Cc4ccc(C(=O)O)cc4)n3)cc2)cc1` [Example 237, 4-((N-(4-(4-(N-(2-(4-dimethylaminophenyl)ethyl)-N-methylamino)phenyl)-2-thiazolyl)-N-methylamino)methyl)benzoic acid]: the melting point is 164 to 167 °C.

The compound `CC(C)CCN(c1ccc(C(=O)O)cc1)c1nc(-c2cc(Cl)ccc2OCc2ccccc2)cs1` [Example 168, 4-(N-(4-(2-benzyloxy-5-chlorophenyl)-2-thiazolyl)-N-(3-methylbutyl)amino)benzoic acid] had a melting point of 143 to 149 °C.

`CC(C)N(c1ccc(C(=O)O)cc1)c1nc(-c2nc3ccc(OCc4ccc(Cl)c(Cl)c4)cc3o2)cs1` [Example 183, 4-(N-(4-(6-(3,4-dichlorobenzyloxy)-2-benzooxazolyl)-2-thiazolyl)-N-isopropylamino)benzoic acid] registered a melting point of 230 °C.

With `CN(Cc1ccc(C2CCCCC2)cc1)c1ccc(-c2csc(N(C)Cc3ccc(C(=O)O)cc3)n2)cc1.CS(=O)(=O)O`, the melting point was 167 to 170 °C.

As for `CN(c1ccc(C(=O)O)cc1)c1nc(-c2ccc(OCc3ccc(C4CCCCC4)cc3)cc2)cs1` [Example 22, 4-(N-(4-(4-(4-cyclohexylbenzyloxy)phenyl)-2-thiazolyl)-N-methylamino)benzoic acid], the melting point was 250 °C (dec.).

Take `CN(Cc1ccc(C2CCCC(=O)C2)cc1)c1ccc(-c2csc(N(C)Cc3ccc(C(=O)O)cc3)n2)cc1` (stereo not shown) [Example 207, 4-((N-methyl-N-(4-(4-(N-methyl-N-(4-(3-oxocyclohexyl)benzyl)amino)phenyl)-2-thiazolyl)amino)methyl)benzoic acid]: the melting point was in the range of 189 to 191 °C.

As to `CC(C)N(c1ccc(C(=O)O)cc1)c1nc(-c2ccc(NC(=O)c3ccc(N4C[C@@H](C)O[C@@H](C)C4)cc3)cc2)cs1.Cl`, the melting point was 230 °C (dec.).

With `CC(C)(c1ccc(C(=O)O)cc1)c1nc(-c2ccc(OCc3ccc(C4CCCCC4)cc3)cc2)cs1` [Example 42, 4-(1-(4-(4-(4-cyclohexylbenzyloxy)phenyl)-2-thiazolyl)-1-methylethyl)benzoic acid], the melting point was in the range of 219 to 221 °C.

`CC(C)N(Cc1ccc(C(=O)O)cc1)c1nc(-c2ccc(NC(=O)c3ccc(N4CCCCC4)cc3)cc2)cs1` [Example 62, 4-((N-isopropyl-N-(4-(4-(4-piperidinobenzoylamino)phenyl)-2-thiazolyl)amino)methyl)benzoic acid]: the melting point is 234 °C (dec.).
